{"source": "patent US20030073608A1", "about": "(priority 2001, published 2003)", "origin": "cited, not measured here", "key": {"[1]": {"tested_on": "ventral tegmental dopamine cells (A10)", "conditions": "limbic-related A10 cells; Bymaster et al., Eur. J. Pharmacol. 1998"}, "[2]": {"tested_on": "substantia nigra dopamine cells (A9)", "conditions": "Bymaster et al., Eur. J. Pharmacol. 1998"}}, "data": [{"smiles": "CCCSc1nsnc1[C@H]1CN2CCC[C@H]1C2", "note": "[PTAC]", "values": [{"measurement": "antagonism of electrophysiological responses in ventral tegmental dopamine cells (A10)", "setting": "[1]", "result": "antagonizes electrophysiological responses"}, {"measurement": "antagonism of substantia nigra dopamine cells (A9)", "setting": "[2]", "result": "does not antagonize"}]}]}
